From patent US5869490A, “Azaheterocyclymethyl derivatives of 2,3,8,9-tetrahydro-7h-1,4-dioxino (2,3-e) indol-8-one” (American Home Products Corporation, priority 1997, dated 1999)

These compounds were tested against T1, dopamine D2 receptor (Rattus norvegicus, UniProt P61169) (assay: Affinity for the dopamine D2 receptor (3H-quinpirole, rat striatal homogenate)). Details: not given.
T1 construct: homogenized rat striatal brain tissue; from tissue; host or cells: rat striatum homogenate
T1 sequence (P61169 whole entry): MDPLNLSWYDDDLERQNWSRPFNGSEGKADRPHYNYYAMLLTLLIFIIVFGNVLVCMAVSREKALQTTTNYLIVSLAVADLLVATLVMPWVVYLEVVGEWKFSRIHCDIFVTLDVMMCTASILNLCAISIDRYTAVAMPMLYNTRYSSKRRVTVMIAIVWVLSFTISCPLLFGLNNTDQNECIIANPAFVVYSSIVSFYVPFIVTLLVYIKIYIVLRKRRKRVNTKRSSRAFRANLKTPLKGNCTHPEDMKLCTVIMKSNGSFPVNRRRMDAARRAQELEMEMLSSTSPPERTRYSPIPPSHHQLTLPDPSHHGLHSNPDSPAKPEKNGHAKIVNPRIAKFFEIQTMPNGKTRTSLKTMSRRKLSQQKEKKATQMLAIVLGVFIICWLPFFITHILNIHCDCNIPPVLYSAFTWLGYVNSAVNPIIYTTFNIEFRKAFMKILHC
Assay type: binding
Description: Affinity for the dopamine D2 receptor was established by a modification of the standard experimental test procedure of Seemen and Schaus, European Journal of Pharmacology 203: 105-109, 1991, wherein homogenized rat striatal brain tissue is incubated with ^3 H-quinpirole and various concentrations of test compound, filtered and washed and counted in a Betaplate scintillation counter.
For `O=C1Cc2c(ccc3c2O[C@@H](CN2CC=C(c4ccccc4)CC2)CO3)N1` [Example 5, 2-(4-Phenyl-3,6-dihydro-2H-pyridin-1-ylmethyl)-2,3,8,9-tetrahydro-7H-1,4-dioxino[2,3-e]indol-8-one], the IC50 was 1.2 nM. Work on `O=C1Cc2c(ccc3c2O[C@@H](CN2CCC4(CC2)C(=O)NCN4c2ccccc2)CO3)N1` [Example 3, 2-(4-Oxo-1-phenyl-1,3,8-triaza-spiro[4,5]dec-8-ylmethyl)-2,3,8,9-tetrahydro-7H-1,4-dioxino-[2,3-e]indol-8-one] yielded an IC50 of 3.2 nM. In the case of `O=C1Cc2c(ccc3c2O[C@@H](CN2CCC(n4c(=O)[nH]c5ccccc54)CC2)CO3)N1` [Example 4, 2-[4-(2-Oxo-2,3-dihydro-benzimidazol-1-yl)-piperidin-1-ylmethyl]-2,3,8,9-tetrahydro-7H-1,4-dioxino[2,3-e]indol-8-one], the IC50 is reported as 4.08 nM.

Same assay, conditions: rat striatal brain tissue homogenate, 3H-quinpirole; read-out: D2 Receptor Affinity (IC50 (nM))
Work on `O=C1Cc2c(ccc3c2O[C@@H](CN2CCc4ccccc4C2)CO3)N1` [Example 1, 2-(3,4-Dihydro-1H-isoguinolin-2-ylmethyl)-2,3,8,9-tetrahydro-7H-1,4-dioxino[2,3-e]indol-8-one] yielded an IC50 of 0.35 nM. In the case of `O=C1Cc2c(ccc3c2O[C@@H](CN2CCC(C(=O)c4ccc(F)cc4)CC2)CO3)N1` [Example 2, 2-(4-(4-Fluoro-benzoyl)-piperidin-1-ylmethyl]-2,3,8,9-tetrahydro-7H-1,4-dioxino[2,3-e]indol-8-one], the IC50 is reported as 0.73 nM. `O=C1Cc2c(ccc3c2O[C@@H](CN2CCN(c4cccc5[nH]ccc45)CC2)CO3)N1` [Example 6, 2-[4-(1H-Indol-4-yl)-piperazin-1-ylmethyl]-2,3,8,9-tetrahydro-7H-1.4-dioxino[2.3-e]indol-8-one] was tested, and the IC50 was 4.06 nM. With `O=C1Cc2c(c(F)cc3c2O[C@@H](CN2CCc4ccccc4C2)CO3)N1` [Example 7, 2-(3,4-Dihydro-1H-isoguinolin-2-ylmethyl)-6-fluoro-2,3,8,9-tetrahydro-7H-1,4-dioxino[2,3-e]indol-8-one] the IC50 was 0.23 nM.
